Assay results published in the supplement of paper PMC10307832.

Legend:
Experiment in all cases: relative viability (nuclei count vs DMSO), 5 days (fraction); higher = more cells survive
Venetoclax + Phenformin = compound: CC1(C)CCC(CN2CCN(c3ccc(C(=O)NS(=O)(=O)c4ccc(NCC5CCOCC5)c([N+](=O)[O-])c4)c(Oc4cnc5[nH]ccc5c4)c3)CC2)=C(c2ccc(Cl)cc2)C1 [Venetoclax] + N=C(N)NC(=N)NCCc1ccccc1 [Phenformin] (partner 250 µM)
Outline: (§1)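 The day after seeding in 1536-well plates, lung cancer cell lines were treated by pin tool with a single drug, or with a fixed anchor-drug dose together with five library-drug doses (not always all listed) in √10 steps. After 5 days, a combined fix-and-stain solution (final 0.05% Triton X-100, 1% formaldehyde, 1 ug/ml Hoechst) was added. Nuclei counted on 4× images gave relative viability as treated counts over vehicle counts, reported as the median of duplicate plates.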

Venetoclax + Pemetrexed = compound: CC1(C)CCC(CN2CCN(c3ccc(C(=O)NS(=O)(=O)c4ccc(NCC5CCOCC5)c([N+](=O)[O-])c4)c(Oc4cnc5[nH]ccc5c4)c3)CC2)=C(c2ccc(Cl)cc2)C1 [Venetoclax] + Nc1nc2[nH]cc(CCc3ccc(C(=O)N[C@@H](CCC(=O)O)C(=O)O)cc3)c2c(=O)[nH]1 [Pemetrexed] (partner 0.2 µM)
Outline: as §1

Venetoclax + Decitabine = compound: CC1(C)CCC(CN2CCN(c3ccc(C(=O)NS(=O)(=O)c4ccc(NCC5CCOCC5)c([N+](=O)[O-])c4)c(Oc4cnc5[nH]ccc5c4)c3)CC2)=C(c2ccc(Cl)cc2)C1 [Venetoclax] + Nc1ncn([C@H]2C[C@H](O)[C@@H](CO)O2)c(=O)n1 [Decitabine] (partner 2 µM)
Outline: as §1

Selumetinib + Linsitinib = compound: Cn1cnc2c(F)c(Nc3ccc(Br)cc3Cl)c(C(=O)NOCCO)cc21 [Selumetinib] + C[C@]1(O)C[C@@H](c2nc(-c3ccc4ccc(-c5ccccc5)nc4c3)c3c(N)nccn32)C1 [Linsitinib] (partner 1 µM)
Outline: as §1

UMC-11
relative viability (Venetoclax + Phenformin; first compound 0.01 µM): 0.286
relative viability (Venetoclax + Phenformin; first compound 0.03162 µM): 0.319
relative viability (Venetoclax + Phenformin; first compound 0.1 µM): 0.32
relative viability (Venetoclax + Phenformin; first compound 0.3162 µM): 0.291
relative viability (Venetoclax + Phenformin; first compound 1 µM): 0.292
relative viability (Venetoclax + Pemetrexed; first compound 0.01 µM): 0.782
relative viability (Venetoclax + Pemetrexed; first compound 0.03162 µM): 0.666
relative viability (Venetoclax + Pemetrexed; first compound 0.1 µM): 0.731
relative viability (Venetoclax + Pemetrexed; first compound 0.3162 µM): 0.752
relative viability (Venetoclax + Pemetrexed; first compound 1 µM): 0.736
relative viability (Venetoclax + Decitabine; first compound 0.01 µM): 0.705
relative viability (Venetoclax + Decitabine; first compound 0.03162 µM): 0.595
relative viability (Venetoclax + Decitabine; first compound 0.1 µM): 0.48
relative viability (Venetoclax + Decitabine; first compound 0.3162 µM): 0.686
relative viability (Venetoclax + Decitabine; first compound 1 µM): 0.608
relative viability (Selumetinib + Linsitinib; first compound 0.02 µM): 0.965
relative viability (Selumetinib + Linsitinib; first compound 0.06325 µM): 1.08
relative viability (Selumetinib + Linsitinib; first compound 0.2 µM): 0.972
relative viability (Selumetinib + Linsitinib; first compound 0.6325 µM): 0.984
